# From patent publication US10238630B2, “Use of eribulin and poly (ADP ribose) polymerase (PARP) inhibitors as combination therapy for the treatment of cancer” (Eisai R&D Management Co., Ltd., priority 2014, dated 2019)
# Entries after “also recorded” stand apart in the source; their conditions may differ. Structures can show the parent of a compound that is named as a salt.
# What was measured:
# Format in all cases: in vivo
# total Akt levels = test: Pharmacodynamic biomarker analysis of total Akt and PI3K pathway proteins in tumor lysates by reverse phase protein microarray (RPMA)
# Method: Multiple proteins in the P13K pathway were assessed by reverse phase protein microarray (RPMA) in tumor lysates. Akt levels decreased in all models except MDA-MB-231 (wild type for BRCA1 and 2 and PTEN) following single agent and combination treatments. This effect is specific for Akt as no changes in total PI3K, Erk, or Src were observed. Phosphorylated Akt (S473 & T308) decreased by E7389 and combination treatment at 48 hours in MDA-MB-468 tumors. […] No significant effects of treatment were observed on phosphorylated Src (Y527) levels in any tumor models.
# [1] = test system: MDA-MB-231 human breast cancer xenografts; test: Antitumor activity against subcutaneous MDA-MB-231 human breast cancer xenografts in athymic mice (two studies)
# Method: MDA-MB-231 human triple negative breast cancer cells are wild type for BRCA1 and 2 and PTEN. Cells were maintained in monolayer cultures in RPMI-1640 growth medium supplemented with 10% fetal bovine serum at 37° C. in a 5% CO2 humidified incubator. On the day of inoculation, cells were harvested by trypsinization, washed, and resuspended in ice-cold PBS. Female immunodeficient athymic mice were inoculated subcutaneously near the right axillary area with MDA-MB-231 cells (5×10^6) in a 1:1 ratio (50 μL each) with Matrigel™ in a volume of 0.1 mL in phosphate buffered saline, using a 26-gauge needle. A total of 94 mice, approximately 6 weeks old were implanted with MDA-MB-231 cells.
# E7449, carboplatin and E7389 were evaluated as single agents and in combination for antitumor activity against MDA-MB-231 human breast cancer xenografts in athymic mice. The first experiment consisted of a vehicle control group, an E7449 single agent group, 2 groups treated with single agent E7389 and 2 combination drug-treated groups (Table 5). Thirty-nine mice were inoculated with MDA-MB-231 cells and on Day 21 following implantation, tumor volumes were measured and mice were randomized into the 6 treatment groups based on tumor volume (average of 300 mm^3). Following randomization drug treatment was initiated. Each group was composed of 5 mice for a total of 30 mice on the first day of treatment. E7449 was formulated in 0.5% methyl cellulose and orally administered once daily for 28 days at 100 mg/kg based on body weight at 0.1 mL per 10 g. E7389 was formulated in saline and was intravenously administered once every 4 days, 4 times (Day 21, 25, 29, and 33) at a dosage of 0.05 or 0.1 mg/kg as single agent or in combination with E7449, based on body weight at 0.1 mL per 10 g. The control group was treated with oral vehicle (0.5% methyl cellulose in water) daily and intravenous vehicle (saline) once every 4 days, 4 times. E7449 or vehicle was administered first and when dosing of all animals was complete E7389 was administered to animals receiving the combination.
# The second experiment consisted of a vehicle control group, 2 groups treated with single agent E7449, 2 groups treated with single agent carboplatin and 3 combination drug-treated groups (Table 6). Fifty five mice were inoculated with MDA-MB-231 cells and on Day 18 following implantation, tumor volumes were measured and mice were randomized into 8 treatment groups based on tumor volume (average of 300 mm^3). Following randomization drug treatment was initiated. Each group consisted of 5 mice for a total of 40 mice on the first day of treatment. E7449, formulated in 0.5% methyl cellulose was orally administered daily for 28 days, at 60 or 100 mg/kg based on body weight at 0.1 mL per 10 g. Carboplatin was formulated in saline and was intravenously administered once on the first day of treatment (Day 18) at a dosage of 15 or 60 mg/kg as a single agent or in combination with E7449 based on body weight at 0.1 mL per 10 g. The control group was treated with oral vehicle (0.5% methyl cellulose in water) daily and intravenous vehicle (saline) once on Day 18. E7449 or vehicle was administered first and when dosing of all animals was complete carboplatin was administered to animals receiving the combination.
# Drug treatment was initiated 21 or 18 days post tumor implantation, in the E7389 and carboplatin combination studies respectively, and continued for 28 days. […]
# [2] = test system: poly (ADP-ribose) (PAR) levels; test: Pharmacodynamic biomarker analysis of poly (ADP-ribose) (PAR) levels in triple negative breast cancer xenograft tumor lysates
# Method: PAR levels rebounded at 24 hours in all models. […] In the HCC1806 (wild type for BRCA and PTEN) tumor lysate, E7389 treatment alone increased PAR at 24 and 48 hours.
# [3] = HCC1806 tumors, early time points
Structure (SMILES),phosphorylated Akt (S473 & T308) (total Akt levels; [3]),phosphorylated Erk (T202/Y204) (total Akt levels; [3]),"antitumor effect (tumor volume) ([1]; E7389 combination study, E7449 100 mg/kg PO QDx28, single agent, 100 mg/kg)","antitumor effect (tumor volume) ([1]; carboplatin combination study, E7449 60 or 100 mg/kg PO QDx28, single agent)","PARP inhibition / PAR levels in tumor lysates ([2]; 6 hours, MDA-MB-436, MDA-MB-468, MDA-MB-231 and HCC1806 tumor lysates)","PAR levels in tumor lysates ([2]; 24 hours, all four models)","phosphorylated Akt (S473 & T308) (total Akt levels; MDA-MB-468 tumors, 48 hours)","inhibition of tumor growth versus vehicle ([1]; E7389 0.1 mg/kg IV Q4Dx4, single agent, P<0.05 on Day 42, 0.1 mg/kg)","antitumor effect (tumor volume), dose dependence ([1]; E7389 0.05 and 0.1 mg/kg IV Q4Dx4, single agent)",PARP activity in tumor lysates ([2]; E7389 treatment alone),"PAR levels in tumor lysates ([2]; HCC1806 tumor lysate, E7389 alone, 24 and 48 hours)"
O=c1[nH]nc2c3c(cccc13)N=C(CN1Cc3ccccc3C1)N2 [E7449],Increased,Increased,did not significantly inhibit tumor growth; also recorded: No antitumor activity,did not significantly inhibit tumor growth; also recorded: No antitumor activity,complete PARP inhibition,rebounded,,,,,
"C=C1C[C@@H]2CC[C@@]34C[C@H]5OC6[C@@H](O[C@H]7CC[C@H](CC(=O)C[C@@H]8[C@@H](OC)[C@@H](C[C@H](O)CN)O[C@H]8C[C@H]8O[C@@H](CC[C@@H]1O2)C[C@@H](C)C8=C)O[C@@H]7[C@@H]6O3)[C@H]5O4 [E7389, 11, 15:18,21:24,28-triepoxy-7,9-ethano-12,15-methano-9H,15H-furo[3,2-i]furo[2′,3′:5,6]pyrano[4,3-b] [1,4]dioxacyclopentacosin-5(4H)-one, 2-[(2S)-3-amino-2-hydroxypropyl]hexacosahydro-3-methoxy-26-methyl-20,27-bis(methylene)-, (2R,3R,3aS,7R,8aS,9S,10aR,11S,12R,13aR,13bS,15S,18S,21S,24S,26R,28R,29aS)-methanesulfonate (salt)]",,,,,,,decreased,statistically significant effect; also recorded: Statistically significant inhibition of tumor growth,Dose dependent antitumor activity,did not inhibit PARP activity,increased PAR
